Reference: the supplement of paper PMC9663587

Key:
[1] = compound: CCN1CCN(Cc2ccc(Nc3ncc(F)c(-c4cc(F)c5nc(C)n(C(C)C)c5c4)n3)nc2)CC1; experiment: increase in dead-cell fraction, 72 h; higher = more death;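 also: breast cancer cell lines in 384-well plates, stained with Hoechst plus LIVE/DEAD far red dye and imaged, cells above an LDR intensity threshold counted dead, Hoechst-negative corpses included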
Flavopiridol [2] = compound: T1, CN1CC[C@H](c2c(O)cc(O)c3c(=O)cc(-c4ccccc4Cl)oc23)[C@H](O)C1 [Flavopiridol]; experiment: as above
LEE011/Ribociclib = compound: CN(C)C(=O)c1cc2cnc(Nc3ccc(N4CCNCC4)cn3)nc2n1C1CCCC1 [LEE011/Ribociclib]; experiment: GR value, 72 h; higher = faster growth (1 = untreated, <0 = killing);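 also: breast cancer and non-malignant breast epithelial lines, nine half-log doses, viable cells counted by Hoechst and LIVE/DEAD dye imaging versus time-zero plates and DMSO controls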
[3] = compound: CCN1CCN(Cc2ccc(Nc3ncc(F)c(-c4cc(F)c5nc(C)n(C(C)C)c5c4)n3)nc2)CC1; experiment: as above
[4] = compound: CCc1cnn2c(NCc3ccc[n+]([O-])c3)cc(N3CCCC[C@H]3CCO)nc12; experiment: as above
Flavopiridol [5] = compound: T1, Flavopiridol; experiment: as above
[6] = compound: CC(=O)c1c(C)c2cnc(Nc3ccc(N4CCNCC4)cn3)nc2n(C2CCCC2)c1=O; experiment: as above
THZ1 = compound: CN(C)C/C=C/C(=O)Nc1ccc(C(=O)Nc2cccc(Nc3ncc(Cl)c(-c4c[nH]c5ccccc45)n3)c2)cc1 [THZ1]; experiment: as above
THZ531 = compound: CN(C)C/C=C/C(=O)Nc1ccc(C(=O)N2CCC[C@@H](Nc3ncc(Cl)c(-c4c[nH]c5ccccc45)n3)C2)cc1 [THZ531]; experiment: as above
BSJ-03-123 = compound: CC(=O)c1c(C)c2cnc(Nc3ccc(N4CCN(CCOCCOCCOCCNC(=O)COc5cccc6c5C(=O)N(C5CCC(=O)NC5=O)C6=O)CC4)cn3)nc2n(C2CCCC2)c1=O [BSJ-03-123]; experiment: as above
Neratinib/HKI272 = compound: CCOc1cc2ncc(C#N)c(Nc3ccc(OCc4ccccn4)c(Cl)c3)c2cc1NC(=O)/C=C/CN(C)C [Neratinib/HKI272]; experiment: as above
YKL-5-124 = compound: C=CC(=O)Nc1ccc(C(=O)Nc2[nH]nc3c2CN(C(=O)N[C@H](CN(C)C)c2ccccc2)C3(C)C)cc1 [YKL-5-124]; experiment: as above

Cell Line: SUM44PE
- increase in dead-cell fraction ([1]; 0.001 µM): 0.0036
- increase in dead-cell fraction ([1]; 0.003162 µM): -0.0095
- increase in dead-cell fraction ([1]; 0.01 µM): 0.0221
- increase in dead-cell fraction ([1]; 0.03162 µM): 0.0221
- increase in dead-cell fraction ([1]; 0.1 µM): -0.017
- increase in dead-cell fraction ([1]; 0.3162 µM): 0.0843
- increase in dead-cell fraction ([1]; 1 µM): 0.0751
- increase in dead-cell fraction ([1]; 3.162 µM): 0.0328
- increase in dead-cell fraction ([1]; 10 µM): 0.697
- increase in dead-cell fraction (Flavopiridol [2]; 0.0001 µM): -0.0156
- increase in dead-cell fraction (Flavopiridol [2]; 0.0003162 µM): -0.0093
- increase in dead-cell fraction (Flavopiridol [2]; 0.001 µM): -0.0478
- increase in dead-cell fraction (Flavopiridol [2]; 0.003162 µM): -0.0522
- increase in dead-cell fraction (Flavopiridol [2]; 0.01 µM): 0.0491
- increase in dead-cell fraction (Flavopiridol [2]; 0.03162 µM): 0.0151
- increase in dead-cell fraction (Flavopiridol [2]; 0.1 µM): 0.263
- increase in dead-cell fraction (Flavopiridol [2]; 0.3162 µM): 0.457
- GR value (LEE011/Ribociclib; 0.001 µM): 0.854 GR
- GR value (LEE011/Ribociclib; 0.003162 µM): 0.783 GR
- GR value (LEE011/Ribociclib; 0.01 µM): 0.676 GR
- GR value (LEE011/Ribociclib; 0.03162 µM): 0.637 GR
- GR value (LEE011/Ribociclib; 0.1 µM): 0.663 GR
- GR value (LEE011/Ribociclib; 0.3162 µM): 0.636 GR
- GR value (LEE011/Ribociclib; 1 µM): 0.55 GR
- GR value (LEE011/Ribociclib; 3.162 µM): 0.545 GR
- GR value (LEE011/Ribociclib; 10 µM): 0.378 GR
- GR value ([3]; 0.001 µM): 0.905 GR
- GR value ([3]; 0.003162 µM): 0.922 GR
- GR value ([3]; 0.01 µM): 0.666 GR
- GR value ([3]; 0.03162 µM): 0.413 GR
- GR value ([3]; 0.1 µM): 0.251 GR
- GR value ([3]; 0.3162 µM): 0.237 GR
- GR value ([3]; 1 µM): 0.201 GR
- GR value ([3]; 3.162 µM): 0.134 GR
- GR value ([3]; 10 µM): -0.763 GR
- GR value ([4]; 0.0001 µM): 0.983 GR
- GR value ([4]; 0.0003162 µM): 1.03 GR
- GR value ([4]; 0.001 µM): 1.08 GR
- GR value ([4]; 0.003162 µM): 0.918 GR
- GR value ([4]; 0.01 µM): 0.257 GR
- GR value ([4]; 0.03162 µM): -0.925 GR
- GR value (Flavopiridol [5]; 0.0001 µM): 0.968 GR
- GR value (Flavopiridol [5]; 0.0003162 µM): 0.969 GR
- GR value (Flavopiridol [5]; 0.001 µM): 0.862 GR
- GR value (Flavopiridol [5]; 0.003162 µM): 0.951 GR
- GR value (Flavopiridol [5]; 0.01 µM): 0.707 GR
- GR value (Flavopiridol [5]; 0.03162 µM): 0.489 GR
- GR value (Flavopiridol [5]; 0.1 µM): -0.0333 GR
- GR value (Flavopiridol [5]; 0.3162 µM): -0.573 GR
- GR value ([6]; 0.0003162 µM): 1.09 GR
- GR value ([6]; 0.001 µM): 0.993 GR
- GR value ([6]; 0.003162 µM): 1.03 GR
- GR value ([6]; 0.01 µM): 1.04 GR
- GR value ([6]; 0.03162 µM): 0.784 GR
- GR value ([6]; 0.1 µM): 0.588 GR
- GR value ([6]; 0.3162 µM): 0.461 GR
- GR value ([6]; 1 µM): 0.514 GR
- GR value ([6]; 3.162 µM): 0.397 GR
- GR value (THZ1; 0.0001 µM): 1.02 GR
- GR value (THZ1; 0.0003162 µM): 0.977 GR
- GR value (THZ1; 0.001 µM): 0.784 GR
- GR value (THZ1; 0.003162 µM): 0.888 GR
- GR value (THZ1; 0.01 µM): -0.229 GR
- GR value (THZ1; 1 µM): -0.0313 GR
- GR value (THZ531; 0.0001 µM): 1.05 GR
- GR value (THZ531; 0.0003162 µM): 0.994 GR
- GR value (THZ531; 0.001 µM): 0.799 GR
- GR value (THZ531; 0.003162 µM): 1.04 GR
- GR value (THZ531; 0.01 µM): 0.941 GR
- GR value (THZ531; 0.03162 µM): 0.783 GR
- GR value (THZ531; 0.1 µM): -0.203 GR
- GR value (BSJ-03-123; 0.001 µM): 0.917 GR
- GR value (BSJ-03-123; 0.003162 µM): 0.854 GR
- GR value (BSJ-03-123; 0.01 µM): 0.911 GR
- GR value (BSJ-03-123; 0.03162 µM): 0.8 GR
- GR value (BSJ-03-123; 0.1 µM): 0.722 GR
- GR value (BSJ-03-123; 0.3162 µM): 0.669 GR
- GR value (BSJ-03-123; 1 µM): 0.45 GR
- GR value (BSJ-03-123; 3.162 µM): 0.337 GR
- GR value (Neratinib/HKI272; 0.0003162 µM): 0.966 GR
- GR value (Neratinib/HKI272; 0.001 µM): 0.921 GR
- GR value (Neratinib/HKI272; 0.003162 µM): 0.764 GR
- GR value (Neratinib/HKI272; 0.01 µM): 0.465 GR
- GR value (Neratinib/HKI272; 0.03162 µM): 0.417 GR
- GR value (Neratinib/HKI272; 0.1 µM): 0.312 GR
- GR value (Neratinib/HKI272; 0.3162 µM): 0.209 GR
- GR value (Neratinib/HKI272; 1 µM): 0.0292 GR
- GR value (Neratinib/HKI272; 3.162 µM): -0.218 GR
- GR value (YKL-5-124; 0.001 µM): -0.181 GR
- GR value (YKL-5-124; 0.003162 µM): 0.0065 GR
- GR value (YKL-5-124; 0.01 µM): -0.018 GR
- GR value (YKL-5-124; 0.03162 µM): -0.112 GR
- GR value (YKL-5-124; 0.1 µM): -0.198 GR
- GR value (YKL-5-124; 0.3162 µM): -0.167 GR
- GR value (YKL-5-124; 1 µM): -0.274 GR
- GR value (YKL-5-124; 3.162 µM): -0.448 GR
